Values of other authors, collected in US9144554B2, “Topical compositions for use in the prevention and/or treatment of dermatitis” (priority 2011, dated 2015).

Settings: medicaments used to treat dermatitis

Row | Molecule | Toxicity
1 | ivermectin | toxic
2 | CN(Cc1cnc2nc(N)nc(N)c2n1)c1ccc(C(=O)N[C@@H](CCC(=O)O)C(=O)O)cc1 [methotrexate] | toxic
